Patent publication EP0671918B1, “COMPOSITIONS CONTAINING ACYCLOVIR-LIKE COMPOUNDS AND 2'-VINYL SUBSTITUTED NUCLEOSIDE ANALOGS FOR THE TREATMENT OF VIRAL INFECTIONS” (MERRELL PHARMACEUTICALS INC., priority 1992, dated 1994)

Key:
[1] = tested on: herpes simplex virus type II; experiment: Anti-herpes viral yield reduction in vero cells, plaque method; format: cell-based, herpes simplex virus EKC (type 2); conditions: 24 hours post infection; for Virus Titer: Viral Control 1.24x10^5
Experimental: (§1) Two strains of herpes simplex virus are used: KOS (type 1) and EKC (type 2). Prepare all of the virus stocks by infecting vero cells at an input multiplicity of 0.1 PFU/cell. Sonically disrupt the cultures at 20-24 hours post infection and store them at -70°C after inclusion of DMSO to 5% (v/v) to prevent freeze damage.
(§2) Determine the anti-herpes viral activity of the compounds by a known method (Ash and Diekema, Antiviral Research, 8: 71-83 (1987)). For example, infect vero cells with each strain of HSV at 1 PFU/Cell. At the end of the absorption period (60 min., 36°C), remove the unattached virus. Wash cell sheets twice with Eagles basal medium (EBM) and 2% fetal calf serum (FCS). Add fresh medium containing the test compounds. Finally, determine viral yields at 24 hours post infection by plaque method on vero cells with methyl cellulose overlay (0.5% in EBM + 1% FCS).

[2] = tested on: herpes simplex virus type I; experiment: as above; format: cell-based, herpes simplex virus KOS (type 1); conditions: 24 hours post infection
Experimental: as §1, §2

[3] = Single agent, Conc. 5.0 ng/ml, Viral Control 2.6x10^5

## Nc1ccn([C@@H]2O[C@H](CO)[C@@H](O)/C2=C\F)c(=O)n1 [Compound A, (E)-2'-deoxy-2'-fluoromethylidenecytidine]
[1]; Conc. 0.0125 ug/ml
  inhibition at 0.0125 µg/mL: 32%
  Virus Titer: 8.5x10^4 P.F.U./ml
[1]; Conc. 0.025 ug/ml
  inhibition at 0.025 µg/mL: 96%
  Virus Titer: 5.5x10^3 P.F.U./ml
[1]; Conc. 0.050 ug/ml
  inhibition at 0.05 µg/mL: 100%
  Virus Titer: 0 P.F.U./ml
[1]; Conc. 0.10 ug/ml
  inhibition at 0.1 µg/mL: 100%
  Virus Titer: 0 P.F.U./ml
[2]; Conc. 0.0125 ug/ml
  inhibition at 0.0125 µg/mL: 0%
[2]; Conc. 0.0125 ug/ml, Viral Control 3.7x10^8
  Virus Titer: 5.5x10^8 P.F.U./ml
[2]; Conc. 0.025 ug/ml
  inhibition at 0.025 µg/mL: 88%
[2]; Conc. 0.025 ug/ml, Viral Control 3.7x10^8
  Virus Titer: 4.5x10^7 P.F.U./ml
[2]; Conc. 0.050 ug/ml
  inhibition at 0.05 µg/mL: 100%
[2]; Conc. 0.050 ug/ml, Viral Control 3.7x10^8
  Virus Titer: 0 P.F.U./ml
[2]; Conc. 0.10 ug/ml
  inhibition at 0.1 µg/mL: 100%
[2]; Conc. 0.10 ug/ml, Viral Control 3.7x10^8
  Virus Titer: 0 P.F.U./ml
[2]; Single agent, Conc. 5.0 ng/ml
  inhibition at 0.005 µg/mL: 42%
[2]; [3]
  Virus Titer: 1.6x10^5 P.F.U./ml

## Nc1nc2c(ncn2COCCO)c(=O)[nH]1 [ACV, 9-[(2-hydroxyethoxy)methyl]guanine, reference compound]
[2]; Single agent, Conc. 2.5 ng/ml
  inhibition at 0.0025 µg/mL: 0%
[2]; Single agent, Conc. 2.5 ng/ml, Viral Control 2.6x10^5
  Virus Titer: 3x10^5 P.F.U./ml
[2]; Single agent, Conc. 5.0 ng/ml
  inhibition at 0.005 µg/mL: 30%
[2]; [3]
  Virus Titer: 1.85x10^5 P.F.U./ml
